Results as given in the supplement of paper PMC3493320.

Test system: NCI-H295R
Test: IC50 (antiproliferative, ATP content)
Conditions: 48 h
Summary of the method: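 Adrenocortical carcinoma cells in 1536-well plates (1500 per well, serum-free DMEM plus ITS, overnight culture) were exposed for 48 h at 37 °C, 5% CO2 to pin-transferred compounds at 8 final concentrations ranging 0.6 nM to 46 µM. ATP content was then read as CellTiter-Glo luminescence and normalised to vehicle and positive-control wells. The IC50 came from logistic curve fits, and any compound lacking a concentration response was recorded as above the top dose.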

Row | SMILES | IC50
1 | CC(O)Cn1cnc2c1c(=O)n(C)c(=O)n2C (configuration not stated) | > 46 µM
2 | CC(=O)Nc1ccc(OCCOCCOc2ccc(NC(C)=O)cc2)cc1 | > 46 µM
3 | CN1CCOC(c2ccccc2)c2ccccc2C1.Cl (configuration not stated) | > 46 µM
4 | Cc1ncc(COP(=O)(O)O)c(CN)c1O | > 46 µM
5 | O=C(O)CCc1nc2ccccc2[nH]1 | > 46 µM
6 | O[C@]([C@H]3CN(CCC3)CC/C=C(C2=C(C)C=CS2)/C1=C(C)C=CS1)=O.Cl | > 46 µM
7 | C[C@@H](CN1CC(=O)NC(=O)C1)N1CC(=O)NC(=O)C1 | > 46 µM
8 | [Na+].[Na+].[O-]C(=O)c4ccccc4C=2c3cc(Br)c([O-])c(Br)c3OC=1C=2\C=C(\Br)C(=O)C=1Br | > 46 µM
9 | O=C1CCc2cc(OCCCCc3nnnn3C3CCCCC3)ccc2N1 | > 46 µM
10 | C=CC1=C(C(=O)O)N2C(=O)[C@@H](NC(=O)C(=NO)c3csc(N)n3)[C@H]2SC1 | > 46 µM
11 | Cc1ccc2nc(N)[nH]c(=O)c2c1Sc1ccncc1.Cl.Cl | > 46 µM
12 | CNCCCN1c2ccccc2CCc2ccccc21.Cl | > 46 µM
13 | CCn1cc(C(=O)O)c(=O)c2cnc(N3CCCC3)nc21 | > 46 µM
14 | O=C(NCCCN1CCOCC1)c1ccc(Cl)cc1 | > 46 µM
15 | ClC(Cl)(Cl)Cl | > 46 µM
16 | CCCc1cc(C(N)=S)ccn1 | > 46 µM
17 | O=C(O)C=CC(=O)Nc1ccc(S(=O)(=O)Nc2nccs2)cc1 | > 46 µM
18 | O=S1(=O)OC(c2ccc(O)cc2)(c2ccc(O)cc2)c2ccccc21 | > 46 µM
19 | O=C(O)C(Cl)Cl | > 46 µM
20 | COP(=O)(OC)OC(c1ccc(Cl)cc1)P(=O)(OC)OC (configuration not stated) | > 46 µM
21 | Cc1cccc(C)c1NC(=O)NC1=CCCN1C | > 46 µM
22 | N=C(N)NS(=O)(=O)c1ccc(N)cc1 | > 46 µM
23 | [C@]43(\C(=C2\C(c1c(O)cccc1[C@](C2C[C@H]3[C@@H](/C(=C(\C4=O)C(NCN5CCCC5)=O)O)N(C)C)(O)C)=O)O)O (some centres not stated) | > 46 µM
24 | O=P(O)(O)C(O)(Cn1ccnc1)P(=O)(O)O | > 46 µM
25 | Cc1cc(O)cc(C)c1Cl | > 46 µM
26 | O=C(O)C1CCCN1 (configuration not stated) | > 46 µM

Row | SMILES | IC50
27 | C[NH+](C)CCC(c1ccccc1)c1cccc[nH+]1.O=C([O-])/C=C\C(=O)[O-] (configuration not stated) | > 46 µM
28 | O=C(CCl)c1ccc(Oc2ccc(C(=O)CCl)cc2)cc1 | > 46 µM
29 | CC(=O)Nc1nnc(S(N)(=O)=O)s1 | > 46 µM
30 | C=CC1=C(C(=O)O)N2C(=O)[C@@H](NC(=O)C(=NOCC(=O)O)c3csc(N)n3)[C@H]2SC1 | > 46 µM
31 | CNCc1ccccc1.Cl | > 46 µM
32 | CCCCOCCOCCOCc1cc2c(cc1CCC)OCO2 | > 46 µM
33 | CC(C(=O)O)c1cccc(C(=O)c2ccccc2)c1 (configuration not stated) | > 46 µM
34 | C[C@H](O)C(=O)Nc1c(I)c(C(=O)NC(CO)CO)c(I)c(C(=O)NC(CO)CO)c1I | > 46 µM
35 | NC(=O)c1cnccn1 | > 46 µM
36 | [C@@]153[C@@H](\C(O)=C(/C[C@@]1([C@H]2CC[C@]4([C@H]([C@@H]2CC3)CC[C@@H]4O)C)C)C#N)O5 | > 46 µM
37 | CC1(C)C(C=C(Cl)Cl)C1C(=O)OCc1cccc(Oc2ccccc2)c1 (configuration not stated) | > 46 µM
38 | CC[N+](CC)(CC(=O)Nc1c(C)cccc1C)Cc1ccccc1.O=C([O-])c1ccccc1 | > 46 µM
39 | Cl.Oc1cn2c(n1)Nc1ccc(Cl)c(Cl)c1C2 | > 46 µM
40 | Cl.O=C(OCC(O)CO)c1ccccc1Nc1ccnc2cc(Cl)ccc12 (configuration not stated) | > 46 µM
41 | CN1CCC(OC(c2ccccc2)c2ccccc2)CC1.Cl | > 46 µM
42 | CN1CCC\C(C1)=C(/C2=CC=CS2)C3=CC=CS3 | > 46 µM
43 | NS(=O)(=O)Cc1noc2ccccc12 | > 46 µM
44 | CC(=O)N/N=C/c1ccc([N+](=O)[O-])o1 | > 46 µM
45 | CC(C)Cn1cnc2c(N)nc3ccccc3c21 | > 46 µM
46 | OC(CCN1CCCCC1)(c1ccccc1)c1ccccc1 | > 46 µM
47 | O.O.O.O.O.O.O.O=S(=O)([O-])[O-].[Co+2] | > 46 µM
48 | CC(C)NNC(=O)c1ccncc1.O=S(=O)(O)O | > 46 µM
49 | CC(=O)N[C@@H](CS)C(=O)O | > 46 µM
50 | CC(=O)OCC(=O)[C@@]53/N=C(/C)O[C@@H]5C[C@H]2[C@@H]4CC\C1=C\C(=O)\C=C/[C@]1(C)[C@H]4[C@@H](O)C[C@@]23C | > 46 µM
51 | O.O.O.O.O=C1[O][Mg]2([O]C(=O)c3ccccc3[O]2)[O]c2ccccc21 | > 46 µM
52 | CNCC(O)c1ccc(O)cc1 (configuration not stated) | > 46 µM

Row | SMILES | IC50
53 | CCOc1ccc(NC(=O)CC(C)O)cc1 (configuration not stated) | > 46 µM
54 | O=C1[C@H]3[C@H](C3)[C@@]([C@]4([H])[C@@]([C@@]5([H])[C@]([C@@](CC5)(OC(C)=O)[C@@](C)=O)(C)CC4)([H])C=C2Cl)(C)C2=C1 | > 46 µM
55 | CCOC(=O)c1c(N)sc2c1CCN(Cc1ccccc1)C2.Cl | > 46 µM
56 | Cc1ccc(S(=O)(=O)NC(=O)NC2CCCCC2)cc1 | > 46 µM
57 | CC(C)CCC[C@@H](C)[C@H]1CC[C@H]2[C@@H]3CC=C4C[C@@H](O)CC[C@]4(C)[C@H]3CC[C@]12C | > 46 µM
58 | OC1=CC(\C=C(C#N)/C#N)=CC(O)=C1O | > 46 µM
59 | Cl.c1ccc(CN(CC2=NCCN2)c2ccccc2)cc1 | > 46 µM
60 | C[C@@](Cc1ccc(O)c(O)c1)(NN)C(=O)O | > 46 µM
61 | Nc1ccc(S(=O)(=O)Nc2nccs2)cc1 | > 46 µM
62 | C\C1=C\N(C(=O)NC1=O)[C@H]2\C=C/[C@@H](CO)O2 | > 46 µM
63 | O=C(OC[C@H]1O[C@](O)(COC(=O)c2cccnc2)[C@@H](OC(=O)c2cccnc2)[C@@H]1OC(=O)c1cccnc1)c1cccnc1 | > 46 µM
64 | CC(C)(N)Cc1ccc(Cl)cc1.Cl | > 46 µM
65 | CCC(C)(C)c1ccc(O)cc1 | > 46 µM
66 | CN/C(=N\c1ccc(C2=NNC(=O)CC2C)cc1)NC#N (configuration not stated) | > 46 µM
67 | CN(C)CCOC(=O)COc1ccc(Cl)cc1.Cl | > 46 µM
68 | O=C(O)COc1ccc(C(=O)c2cccs2)c(Cl)c1Cl | > 46 µM
69 | O=[C@](CO)[C@@H]2[C@](CC1)(C)[C@](CC2)([H])[C@@](CC4)([H])[C@@]1([H])[C@](CC3)(C)C4=CC3=O | > 46 µM
70 | O=C(O)C(=O)O.c1ccc2cc(C3=NCCN3)ccc2c1 | > 46 µM
71 | CO[C@@]1(NC(=O)CSCC#N)C(=O)N2C(C(=O)[O-])=C(CSc3nnnn3C)CS[C@@H]21.[Na+] | > 46 µM
72 | CNC(=NC#N)NCCSCc1nc[nH]c1C | > 46 µM
73 | CCOC(=O)C1=C(COCCN)NC(C)=C(C(=O)OC)C1c1ccccc1Cl.O=S(=O)(O)c1ccccc1 (configuration not stated) | > 46 µM
74 | COc1cc(C)nc(-n2nc(C)cc2OC)n1 | > 46 µM
75 | CC1(C)S[C@@H]2[C@H](NC(=O)C3(N)CCCCC3)C(=O)N2[C@H]1C(=O)O | > 46 µM
76 | CN1CCN(c2cc3c(cc2F)c(=O)c(C(=O)O)cn3-c2ccc(F)cc2)CC1.Cl | > 46 µM
77 | Cc1cc(C(C)(C)C)cc(C)c1CC1=NCCN1.Cl | > 46 µM
78 | O=C1N=C2SCCN2C(=O)C1Cc1ccc(Cl)cc1 (configuration not stated) | > 46 µM

Row | SMILES | IC50
79 | CN1CCN2c3ccccc3Cc3ccccc3C2C1 (configuration not stated) | > 46 µM
80 | CC(CCc1ccc(O)cc1)NCC(O)c1ccc(O)cc1.Cl (configuration not stated) | > 46 µM
81 | NCC[C@H](O)C(=O)N[C@@H]1C[C@H](N)[C@@H](O[C@H]2O[C@H](CN)[C@@H](O)[C@H](O)[C@H]2N)[C@H](O[C@@H]2O[C@H](CO)[C@H](O)[C@H]2O)[C@H]1O.O=S(=O)(O)O.O=S(=O)(O)O | > 46 µM
82 | CC(=O)O.N=C(N)NCCC[C@H](NC(=O)[C@@H]1CCCN1C(=O)[C@@H]1CSSC[C@H](N)C(=O)N[C@@H](Cc2ccc(O)cc2)C(=O)N[C@@H](Cc2ccccc2)C(=O)N[C@@H](CCC(N)=O)C(=O)N[C@@H](CC(N)=O)C(=O)N1)C(=O)NCC(N)=O | > 46 µM
83 | CC(C)(C)NC[C@H](O)COc1nsnc1N1CCOCC1 | > 46 µM
84 | OCCOCCN1CCN(C2=Nc3ccccc3Sc3ccccc32)CC1 | > 46 µM
85 | CNC(=C[N+](=O)[O-])NCCSCc1csc(CN(C)C)n1 | > 46 µM
86 | O=c1cc(CO)occ1O | > 46 µM
87 | O=C(C)O[C@@H]([C@H]4[N@@+]6(CCCCC6)C)[C@](CC5)(C)[C@](C4)([H])[C@@]3([H])[C@@]5([H])[C@@]2(C)C[C@@H]([C@@H](OC(C)=O)C[C@@]([H])2CC3)N1CCCCC1.[Br-] | > 46 µM
88 | CC(=O)[O][Al]([OH])[O]C(C)=O | > 46 µM
89 | CCCC(=O)OC(C(Cl)(Cl)Cl)P(=O)(OC)OC (configuration not stated) | > 46 µM
90 | Cc1c(Cl)cccc1Nc1ncccc1C(=O)O | > 46 µM
91 | C1[C@@H]([C@H]([C@@H]([C@H]([N@]1CCO)CO)O)O)O | > 46 µM
92 | COc1ccc(/C=C/C(=O)Nc2ccccc2C(=O)O)cc1OC | > 46 µM
93 | CCCCCCCCCCCCCCCCCC(=O)OC[C@@H](O)[C@H]1OC[C@H](O)[C@H]1O | > 46 µM
94 | CN1CCN(C2=Nc3cc(Cl)ccc3Nc3ccccc32)CC1 | > 46 µM
95 | NCc1ccccc1Sc1ccccc1CO | > 46 µM
96 | CCCCOc1cc(C(=O)NCCN(CC)CC)c2ccccc2n1 | > 46 µM
97 | CN1C[C@@H]2C[C@H]1CN2c1cc2c(cc1F)c(=O)c(C(=O)O)cn2C1CC1 | > 46 µM
98 | CC(=O)[C@]2(CC[C@H]3[C@@H]4C[C@H](C)\C1=C\C(=O)CC[C@]1(C)[C@H]4CC[C@]23C)OC(C)=O | > 46 µM
99 | O=S(=O)(O)O.[2H]C([2H])([2H])[C@H](N)Cc1ccccc1.[2H]C([2H])([2H])[C@H](N)Cc1ccccc1 | > 46 µM
100 | C=CC[N+]1([C@H]2C[C@H]3[C@@H]4CC[C@H]5C[C@H](O)[C@@H](N6CCOCC6)C[C@]5(C)[C@H]4CC[C@]3(C)[C@H]2OC(C)=O)CCCC1.[Br-] | > 46 µM
101 | CCCCCCCCCCCCCC[n+]1ccc(C)cc1.[Cl-] | > 46 µM
102 | CCCN1C[C@H](CSC)C[C@@H]2c3cccc4[nH]cc(c34)C[C@H]21.CS(=O)(=O)O | > 46 µM
